How the values were obtained:
BACE1 enzyme = BACE1 enzyme (Homo sapiens (Human), UniProt P56817); test: BACE1 Cell-Free Assay (fluorescence polarization, cleavage of synthetic APP substrate); assay type: biochemical; details: geometric mean of 2-3 determinations; Examples 32-34 (footnote b) single determination
Text: Beta-secretase (BACE) is one of the enzymes involved in the generation of the amyloid beta peptide found in the amyloid plaques of Alzheimer's Disease patients. This assay measures the inhibition of the beta-secretase enzyme as it cleaves a non-native peptide.
A synthetic APP substrate that can be cleaved by beta-secretase having N-terminal biotin and made fluorescent by the covalent attachment of Oregon Green at the Cys residue is used to assay beta-secretase activity in the presence or absence of the inhibitory compounds. The substrate is Biotin-GLTNIKTEEISEISY^EVEFR-C[Oregon Green]KK-OH. The BACE1 enzyme is affinity purified material from conditioned media of CHO-K1 cells that have been transfected with a soluble BACE construct (BACE1deltaTM96His). Compounds are incubated in a log dose response curve from a top concentration of 100 μM with BACE1 enzyme and the biotinylated fluorescent peptide in 384-well black plates (Thermo Scientific #4318). BACE1 is at a final concentration of 0.1 nM with a final concentration of peptide substrate of 150 nM in a reaction volume of 30 μL assay buffer [100 mM sodium acetate, pH 4.5 (brought to pH with acetic acid), and 0.001% Tween-20]. Plates are covered and incubated for 3 hours at 37° C. The reaction is stopped with the addition of 30 μL of 1.5 μM Streptavidin (Pierce, #21125). After a 10 minute incubation at room temperature, plates are read on a PerkinElmer EnVision for fluorescence polarization (Ex485 nm/Em530 nm). The activity of the beta-secretase enzyme is detected by changes in the fluorescence polarization that occur when the substrate is cleaved by the enzyme.

[1] = tested on: sAPPβ levels in H4 human neuroglioma cells over-expressing the wild-type human APP695; test: Whole Cell Assay (In Vitro sAPPβ Assay), TMB-ELISA; assay type: cell-based; details: 18 hours, geometric mean of 2-3 determinations, Examples 32-34 (footnote b) single determination
Method: Whole Cell Assay (In Vitro sAPPpβ Assay):
H4 human neuroglioma cells over-expressing the wild-type human APP695 are treated for 18 hours with compound in a final concentration 1% DMSO. sAPPβ levels are measured using TMB-ELISA with capture APP N-terminal antibody (Affinity BioReagents, OMA1-03132), wild-type sAPPβ specific reporter p192 (Elan), and tertiary anti rabbit-HRP (GE Healthcare).

BACE1 enzyme, sequence (P56817 46-457): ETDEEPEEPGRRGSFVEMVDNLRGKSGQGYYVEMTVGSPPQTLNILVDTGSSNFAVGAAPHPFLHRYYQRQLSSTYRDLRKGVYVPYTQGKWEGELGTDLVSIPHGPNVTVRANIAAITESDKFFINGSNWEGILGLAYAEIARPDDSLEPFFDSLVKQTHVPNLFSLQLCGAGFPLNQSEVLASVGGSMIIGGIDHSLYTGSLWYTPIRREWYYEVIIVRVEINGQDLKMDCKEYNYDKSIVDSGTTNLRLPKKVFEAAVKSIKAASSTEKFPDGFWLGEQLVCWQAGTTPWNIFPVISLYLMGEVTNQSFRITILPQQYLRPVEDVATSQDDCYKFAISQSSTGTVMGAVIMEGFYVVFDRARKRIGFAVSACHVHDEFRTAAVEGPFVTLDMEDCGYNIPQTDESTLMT

SMILES	IC50 (BACE1 enzyme) [nM]	IC50 [1] [nM]
COc1ccc([C@H]2C[C@H]3CSC(N)=N[C@@]3(c3ccc(F)cc3F)CO2)c(F)c1 [Example 20, (4aR,6R,8aS)-8a-(2,4-difluorophenyl)-6-(2-fluoro-4-methoxyphenyl)-4,4a,5,6,8,8a-hexahydropyrano[3,4-d][1,3]thiazin-2-amine]	83	0.039
NC1=N[C@@]2(c3ccc(F)cc3F)CO[C@@H](c3ccc(F)cc3)C[C@H]2CS1 [Example 1, (4aR,6R,8aS)-8a-(2,4-difluorophenyl)-6-(4-fluorophenyl)-4,4a,5,6,8,8a-hexahydropyrano[3,4-d][1,3]thiazin-2-amine]	14	0.006
Cc1cc(F)cc([C@H]2C[C@H]3CSC(N)=N[C@@]3(c3ccc(F)cc3F)CO2)c1 [Example 10, (4aR,6R,8aS)-8a-(2,4-difluorophenyl)-6-(3-fluoro-5-methylphenyl)-4,4a,5,6,8,8a-hexahydropyrano[3,4-d][1,3]thiazin-2-amine]	16	0.038
COc1ccc(F)c([C@H]2C[C@H]3CSC(N)=N[C@@]3(c3ccc(F)cc3F)CO2)c1 [Example 22, (4aR,6R,8aS)-8a-(2,4-difluorophenyl)-6-(2-fluoro-5-methoxyphenyl)-4,4a,5,6,8,8a-hexahydropyrano[3,4-d][1,3]thiazin-2-amine]	397	0.248
Cc1ccc(F)c([C@H]2C[C@H]3CSC(N)=N[C@@]3(c3ccc(F)cc3F)CO2)c1 [Example 11, (4aR,6R,8aS)-8a-(2,4-difluorophenyl)-6-(2-fluoro-5-methylphenyl)-4,4a,5,6,8,8a-hexahydropyrano[3,4-d][1,3]thiazin-2-amine]	21	0.017
NC1=N[C@@]2(c3ccc(F)cc3F)CO[C@@H](c3ccc(F)cc3F)C[C@H]2CS1 [Example 4, (4aR,6R,8aS)-6,8a-bis(2,4-difluorophenyl)-4,4a,5,6,8,8a-hexahydropyrano[3,4-d][1,3]thiazin-2-amine]	39	0.025
Cc1ccc([C@H]2C[C@H]3CSC(N)=N[C@@]3(c3ccc(F)cc3F)CO2)cc1 [Example 6, (4aR,6R,8aS)-8a-(2,4-difluorophenyl)-6-(4-methylphenyl)-4,4a,5,6,8,8a-hexahydropyrano[3,4-d][1,3]thiazin-2-amine]	24	0.005
NC1=N[C@@]2(c3ccc(F)cc3F)CO[C@@H](c3cccc(F)c3)C[C@H]2CS1 [Example 2, (4aR,6R,8aS)-8a-(2,4-difluorophenyl)-6-(3-fluorophenyl)-4,4a,5,6,8,8a-hexahydropyrano[3,4-d][1,3]thiazin-2-amine]	22	0.009
NC1=N[C@@]2(c3ccc(F)cc3F)CO[C@@H](c3ccc(F)c(F)c3)C[C@H]2CS1 [Example 5, (4aR,6R,8aS)-8a-(2,4-difluorophenyl)-6-(3,4-difluorophenyl)-4,4a,5,6,8,8a-hexahydropyrano[3,4-d][1,3]thiazin-2-amine]	10	0.007
N#Cc1cccc([C@H]2C[C@H]3CSC(N)=N[C@@]3(c3ccc(F)cc3F)CO2)c1 [Example 29, 3-[(4aR,6R,8aS)-2-amino-8a-(2,4-difluorophenyl)-4,4a,5,6,8,8a-hexahydropyrano[3,4-d][1,3]thiazin-6-yl]benzonitrile]	99	0.012
NC1=N[C@@]2(c3ccc(F)cc3F)CO[C@@H](c3cccc(C(F)(F)F)c3)C[C@H]2CS1 [Example 13, (4aR,6R,8aS)-8a-(2,4-difluorophenyl)-6-[3-(trifluoromethyl)phenyl]-4,4a,5,6,8,8a-hexahydropyrano[3,4-d][1,3]thiazin-2-amine]	97	0.222
COc1ccc([C@H]2C[C@H]3CSC(N)=N[C@@]3(c3ccc(F)cc3F)CO2)cc1F [Example 19, (4aR,6R,8aS)-8a-(2,4-difluorophenyl)-6-(3-fluoro-4-methoxyphenyl)-4,4a,5,6,8,8a-hexahydropyrano[3,4-d][1,3]thiazin-2-amine]	44	0.023
NC1=N[C@@]2(c3ccc(F)cc3F)CO[C@@H](c3ccc4c(c3)OCO4)C[C@H]2CS1 [Example 27, (4aR,6R,8aS)-6-(1,3-benzodioxol-5-yl)-8a-(2,4-difluorophenyl)-4,4a, 5,6,8,8a-hexahydropyrano[3,4-d][1,3]thiazin-2-amine]	19	0.008
NC1=N[C@@]2(c3ccc(F)cc3F)CO[C@@H](c3ccc(OC(F)(F)F)cc3)C[C@H]2CS1 [Example 15, (4aR,6R,8aS)-8a-(2,4-difluorophenyl)-6-[4-(trifluoromethoxy)phenyl]-4,4a,5,6,8,8a-hexahydropyrano[3,4-d][1,3]thiazin-2-amine]	21	0.142

The remaining lines, values ahead:

IC50 (BACE1 enzyme) [nM]	IC50 [1] [nM]	SMILES
2210	0.691	COc1ccccc1[C@H]1C[C@H]2CSC(N)=N[C@@]2(c2ccc(F)cc2F)CO1 [Example 17, (4aR,6R,8aS)-8a-(2,4-difluorophenyl)-6-(2-methoxyphenyl)-4,4a,5,6,8,8a-hexahydropyrano[3,4-d][1,3]thiazin-2-amine]
161	0.071	COCc1cccc([C@H]2C[C@H]3CSC(N)=N[C@@]3(c3ccc(F)cc3F)CO2)c1 [Example 24, (4aR,6R,8aS)-8a-(2,4-difluorophenyl)-6-[3-(methoxymethyl)phenyl]-4,4a,5,6,8,8a-hexahydropyrano[3,4-d][1,3]thiazin-2-amine]
6	0.005	NC1=N[C@@]2(c3ccc(F)cc3F)CO[C@@H](c3ccc4c(c3)CCO4)C[C@H]2CS1 [Example 26, (4aR,6R,8aS)-8a-(2,4-difluorophenyl)-6-(2,3-dihydro-1-benzofuran-5-yl)-4,4a,5,6,8,8a-hexahydropyrano[3,4-d][1,3]thiazin-2-amine]
970	0.665	Cc1ccccc1[C@H]1C[C@H]2CSC(N)=N[C@@]2(c2ccc(F)cc2F)CO1 [Example 7, (4aR,6R,8aS)-8a-(2,4-difluorophenyl)-6-(2-methylphenyl)-4,4a,5,6,8,8a-hexahydropyrano[3,4-d][1,3]thiazin-2-amine]
15	0.004	C[C@H]1SC(N)=N[C@@]2(c3ccc(F)cc3F)CO[C@@H](c3ccc(F)cc3)C[C@@H]12 [Example 32, (4R,4aR,6R,8aS)-8a-(2,4-Difluorophenyl)-6-(4-fluorophenyl)-4-methyl-4,4a,5,6,8,8a-hexahydropyrano[3,4-d][1,3]thiazin-2-amine]
22	0.01	COCc1ccc([C@H]2C[C@H]3CSC(N)=N[C@@]3(c3ccc(F)cc3F)CO2)cc1 [Example 25, (4aR,6R,8aS)-8a-(2,4-difluorophenyl)-6-[4-(methoxymethyl)phenyl]-4,4a,5,6,8,8a-hexahydropyrano[3,4-d][1,3]thiazin-2-amine]
14	0.004	C[C@H]1SC(N)=N[C@@]2(c3ccc(F)cc3F)CO[C@@H](c3cccc(C#N)c3)C[C@@H]12 [Example 34, (4R,4aR,6R,8aS)-8a-(2,4-Difluorophenyl)-6-(3-cyanophenyl)-4-methyl-4,4a,5,6,8,8a-hexahydropyrano[3,4-d][1,3]thiazin-2-amine]
335	0.216	COc1cc(F)cc([C@H]2C[C@H]3CSC(N)=N[C@@]3(c3ccc(F)cc3F)CO2)c1 [Example 21, (4aR,6R,8aS)-8a-(2,4-difluorophenyl)-6-(3-fluoro-5-methoxyphenyl)-4,4a,5,6,8,8a-hexahydropyrano[3,4-d][1,3]thiazin-2-amine]
	0.176	NC1=N[C@@]2(c3ccc(F)cc3F)CO[C@@H](c3ccc(C(F)(F)F)cc3)C[C@H]2CS1 [Example 14, (4aR,6R,8aS)-8a-(2,4-difluorophenyl)-6-[4-(trifluoromethyl)phenyl]-4,4a,5,6,8,8a-hexahydropyrano[3,4-d][1,3]thiazin-2-amine]
11	0.006	C[C@H]1SC(N)=N[C@@]2(c3ccc(F)cc3F)CO[C@@H](c3ccc(C#N)cc3)C[C@@H]12 [Example 33, (4R,4aR,6R,8aS)-8a-(2,4-Difluorophenyl)-6-(4-cyanophenyl)-4-methyl-4,4a,5,6,8,8a-hexahydropyrano[3,4-d][1,3]thiazin-2-amine]
13	0.012	Cc1ccc([C@H]2C[C@H]3CSC(N)=N[C@@]3(c3ccc(F)cc3F)CO2)cc1F [Example 9, (4aR,6R,8aS)-8a-(2,4-difluorophenyl)-6-(3-fluoro-4-methylphenyl)-4,4a,5,6,8,8a-hexahydropyrano[3,4-d][1,3]thiazin-2-amine]
